# Test results from ChEMBL document CHEMBL1121978, “Ultra-short-acting beta-adrenergic receptor blocking agents. 2. (Aryloxy)propanolamines containing esters on the aryl function” (J Med Chem, 1982).
# The source made the active and inactive calls. The rule behind the calls is not given here.
# Experiments:
# [1] = biological target: Beta-1 adrenergic receptor (Cavia porcellus) (UniProt B0FL73); experiment: The compound was tested in vitro for its ability to block Beta-1 adrenergic receptor in guinea pig right atria preparation at 10e-5M; inactive
# Beta-1 adrenergic receptor (Cavia porcellus), sequence (B0FL73 1-467): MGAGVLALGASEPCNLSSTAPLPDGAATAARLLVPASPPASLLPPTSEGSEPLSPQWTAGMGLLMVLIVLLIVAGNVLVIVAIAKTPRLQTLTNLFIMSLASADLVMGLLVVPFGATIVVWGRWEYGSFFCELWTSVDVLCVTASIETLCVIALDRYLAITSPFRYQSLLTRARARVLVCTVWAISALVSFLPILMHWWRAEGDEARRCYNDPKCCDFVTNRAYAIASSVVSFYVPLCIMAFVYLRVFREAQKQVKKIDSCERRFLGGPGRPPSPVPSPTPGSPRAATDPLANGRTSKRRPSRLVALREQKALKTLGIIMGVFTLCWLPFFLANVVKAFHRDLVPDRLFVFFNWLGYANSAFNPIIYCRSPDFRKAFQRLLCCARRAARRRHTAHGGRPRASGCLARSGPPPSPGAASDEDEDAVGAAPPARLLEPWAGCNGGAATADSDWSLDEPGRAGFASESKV
# [2] = biological target: Beta-1 adrenergic receptor (Canis lupus familiaris) (UniProt P79148)
# [3] = biological target: Beta-1 adrenergic receptor (Canis lupus familiaris) (UniProt P79148); remark: listed apart in the source
# [4] = biological target: Beta-1 adrenergic receptor (Cavia porcellus) (UniProt B0FL73); experiment: Cardioselectivity expressed as antilog of pA2 (atria)-pA2 (trachea).
# [5] = biological target: Beta-1 adrenergic receptor (Cavia porcellus, UniProt B0FL73); experiment: The compound was tested in vitro for its ability to block Beta-1 adrenergic receptor in guinea pig right atria preparation; conditions: read-out: pA2 (converted)
# Beta-1 adrenergic receptor, sequence (B0FL73 whole entry): as the sequence (B0FL73 1-467) above
# [6] = biological target: Beta-1 adrenergic receptor (Cavia porcellus) (UniProt B0FL73)
# Description: The compound was tested in vivo for its ability to block beta-1-adrenergic receptor in guinea pig right atria preparation at a duration of 3h
SMILES,In vivo duration [2] [min],In vivo duration [3] [min],other results
CC(C)NCC(O)COc1ccc(C(=O)O)cc1 (stereo not drawn),–,–,pA2 [1]: inactive
COC(=O)c1ccccc1OCC(O)CNCCc1ccc(OC)c(OC)c1 (stereo not drawn),–,30,–
COC(=O)c1ccccc1OCC(O)CNC(C)(C)C (stereo not drawn),12,22,–
COC(=O)CCc1ccc(OCC(O)CNC(C)(C)C)cc1 (stereo not drawn),–,15,–
COC(=O)c1ccccc1OCC(O)CNC(C)(C)CO (stereo not drawn),–,55,–
C=COC(=O)c1cccc(OCC(O)CNC(C)C)c1 (stereo not drawn),–,–,Kb [5]: 126 nM; In vivo duration [6]: > 60 min
C=COC(=O)c1ccc(OCC(O)CNC(C)C)cc1 (stereo not drawn),–,–,Kb [5]: 501 nM; Cardio selectivity [4]: 5
CCOC(=O)c1ccccc1OCC(O)CNC(C)(C)C (stereo not drawn),–,38,–
COC(=O)CCc1ccc(OCC(O)CNCCc2ccc(OC)c(OC)c2)cc1 (stereo not drawn),–,14,Cardio selectivity [4]: 20
C=COC(=O)c1ccccc1OCC(O)CNC(C)C (stereo not drawn),–,–,Kb [5]: 12.6 nM
COC(=O)c1ccc(OCC(O)CNC(C)C)cc1 (stereo not drawn),31,–,–
COC(=O)CCc1ccccc1OCC(O)CNC(C)C (stereo not drawn),–,29,–
COC(=O)CCc1ccc(OCC(O)CNCCCc2ccccc2)cc1 (stereo not drawn),–,–,Cardio selectivity [4]: 20

# The next lines start with results.
In vivo duration [2] [min],In vivo duration [3] [min],SMILES,other results
22,–,COC(=O)c1ccc(OCC(O)CNC(C)(C)C)cc1 (stereo not drawn),–
20,> 60,COC(=O)Cc1ccc(OCC(O)CNC(C)C)cc1 (stereo not drawn),–
12,12,COC(=O)CCc1ccc(OCC(O)CNC(C)C)cc1 (stereo not drawn),–
61,–,CC(=O)Nc1ccc(OCC(O)CNC(C)C)cc1 (stereo not drawn),–
56,–,CCOC(=O)c1ccc(OCC(O)CNC(C)C)cc1 (stereo not drawn),–
–,43,CCOC(=O)CCc1ccc(OCC(O)CNC(C)C)cc1 (stereo not drawn),Cardio selectivity [4]: 30
–,> 60,COC(=O)/C=C/c1ccc(OCC(O)CNC(C)C)cc1 (stereo not drawn),Cardio selectivity [4]: 18
15,15,COC(=O)c1ccccc1OCC(O)CNC(C)C (stereo not drawn),–
40,> 60,COC(=O)CCCc1ccc(OCC(O)CNC(C)C)cc1 (stereo not drawn),Cardio selectivity [4]: 13
